{
  "source": "patent US20080119412A1",
  "about": "“Polypeptides for Modulating Binding of Trp Channel Proteins and Trp- Associated Proteins” (NoNO Inc., priority 2003, published 2008)",
  "assay_in_all_cases": "G3 assay titration, GST-PDZ fusion / biotinylated peptide",
  "type_in_all_cases": "binding",
  "key": {"Syntrophin 1 alpha d1": {"biological_target": "T1, Syntrophin 1 alpha d1 (Homo sapiens, UniProt Q13424)", "T1 construct": "made in house; host or cells: E. coli (DH5alpha, BL21 or JM109)", "T1 sequence (Q13424 84-177)": "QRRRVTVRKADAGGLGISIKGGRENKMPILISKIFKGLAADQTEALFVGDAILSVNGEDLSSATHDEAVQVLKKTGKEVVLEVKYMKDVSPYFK"}, "RIM2 d1": {"biological_target": "T2, RIM2 d1 (Homo sapiens, UniProt Q9UQ26)", "T2 construct": "made in house; host or cells: E. coli (DH5alpha, BL21 or JM109)", "T2 sequence (Q9UQ26 632-757)": "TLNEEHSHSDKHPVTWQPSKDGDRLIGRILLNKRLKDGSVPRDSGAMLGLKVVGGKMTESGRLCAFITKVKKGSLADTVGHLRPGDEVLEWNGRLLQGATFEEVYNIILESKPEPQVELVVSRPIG"}, "Mint 1 (d1, d2)": {"biological_target": "T3, Mint 1 (d1, d2) (Homo sapiens, UniProt Q02410, K730E)", "T3 construct": "made in house; host or cells: E. coli (DH5alpha, BL21 or JM109)", "T3 sequence (Q02410 651-828 K730E)": "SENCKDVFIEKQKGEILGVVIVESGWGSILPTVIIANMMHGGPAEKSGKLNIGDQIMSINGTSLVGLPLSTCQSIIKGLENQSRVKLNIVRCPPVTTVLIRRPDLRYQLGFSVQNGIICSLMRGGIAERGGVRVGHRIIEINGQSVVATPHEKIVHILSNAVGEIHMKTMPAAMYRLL"}, "LIM Mystique d1": {"biological_target": "T4, LIM Mystique d1 (Homo sapiens, UniProt Q96JY6)", "T4 construct": "made in house; host or cells: E. coli (DH5alpha, BL21 or JM109)", "T4 sequence (Q96JY6 1-91)": "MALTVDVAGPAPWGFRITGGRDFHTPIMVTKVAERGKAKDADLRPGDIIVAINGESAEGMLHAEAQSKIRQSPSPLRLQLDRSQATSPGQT"}, "PAR3L d3": {"biological_target": "T5, PAR3L d3 (Homo sapiens, UniProt Q8TEW8)", "T5 construct": "made in house; host or cells: E. coli (DH5alpha, BL21 or JM109)", "T5 sequence (Q8TEW8 with tags, fused parts or gaps)": "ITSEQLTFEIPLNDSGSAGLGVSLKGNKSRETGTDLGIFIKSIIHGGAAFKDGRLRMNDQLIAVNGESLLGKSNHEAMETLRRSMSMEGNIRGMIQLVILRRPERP"}, "SITAC-18 d2": {"biological_target": "T6, SITAC-18 d2 (Homo sapiens, UniProt Q9H190)", "T6 construct": "made in house; host or cells: E. coli (DH5alpha, BL21 or JM109)", "T6 sequence (Q9H190 with tags, fused parts or gaps)": "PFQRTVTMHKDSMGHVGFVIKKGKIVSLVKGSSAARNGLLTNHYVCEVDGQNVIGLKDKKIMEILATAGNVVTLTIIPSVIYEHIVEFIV"}, "MAST2 d1": {"biological_target": "T7, MAST2 d1 (Homo sapiens, UniProt Q6P0Q8)", "T7 construct": "made in house; host or cells: E. coli (DH5alpha, BL21 or JM109)", "T7 sequence (Q6P0Q8 with tags, fused parts or gaps)": "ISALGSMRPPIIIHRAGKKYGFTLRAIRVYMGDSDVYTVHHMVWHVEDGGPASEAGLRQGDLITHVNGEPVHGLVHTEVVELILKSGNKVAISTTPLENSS"}},
  "note": "Residues, ends and D or L forms follow the SMILES beside them. *: point of attachment. Biotin = O=C1N[C@H]2[C@H](CS[C@H]2CCCCC(=O)*)N1",
  "data": [
    {"smiles": "CSCC[C@H](NC(=O)[C@H](CC(C)C)NC(=O)[C@H](CCCNC(=N)N)NC(=O)[C@@H](NC(=O)[C@H](CO)NC(=O)[C@H](CC(N)=O)NC(=O)[C@@H](NC(=O)[C@H](CO)NC(=O)[C@H](CCCNC(=N)N)NC(=O)[C@H](CCCNC(=N)N)NC(=O)[C@H](CCCNC(=N)N)NC(=O)[C@H](CCC(N)=O)NC(=O)[C@H](CCCNC(=N)N)NC(=O)[C@H](CCCNC(=N)N)NC(=O)[C@H](CCCCN)NC(=O)[C@H](CCCCN)NC(=O)[C@H](CCCNC(=N)N)NC(=O)CNC(=O)[C@H](Cc1ccc(O)cc1)NC(=O)CCCC[C@@H]1SC[C@@H]2NC(=O)N[C@@H]21)[C@@H](C)O)C(C)C)C(=O)N[C@@H](CC(C)C)C(=O)O", "note": "[Tat-TRPM7 peptide] (Biotin-YGRKKRRQRRRSTNSVRLML-OH)", "values": [
      {"measurement": "EC50", "setting": "Syntrophin 1 alpha d1", "result": 160, "unit": "nM"},
      {"measurement": "EC50", "setting": "RIM2 d1", "result": 47, "unit": "nM"},
      {"measurement": "EC50", "setting": "Mint 1 (d1, d2)", "result": 180, "unit": "nM"},
      {"measurement": "EC50", "setting": "LIM Mystique d1", "result": 90, "unit": "nM"},
      {"measurement": "EC50", "setting": "PAR3L d3", "result": 100, "unit": "nM"},
      {"measurement": "EC50", "setting": "SITAC-18 d2", "result": 90, "unit": "nM"},
      {"measurement": "EC50", "setting": "MAST2 d1", "result": 110, "unit": "nM"}
    ]}
  ]
}
